Test results taken from patent US5500344A, “Serine protease and uses thereof” (The United States of America as represented by the …, priority 1992, dated 1996).
Each block holds one molecule with its values, some of them ahead of it. Starred links: 1 amine or outer side, 2 acyl side, 3 side chain; linkers in the order of their positions; H or OH if unused. Residues, ends and D or L forms follow the SMILES beside them. *: point of attachment. Suc = O=C(CCC(=O)[*:2])[*:1]; Boc = CC(C)(C)OC(=O)*; SBn = c1ccc(CS*)cc1

Tests used:
[1] = target: T1, Asp-ase (Rattus norvegicus, UniProt P18291); test: Initial rates of peptide thiobenzyl ester substrate hydrolysis by HPLC-purified Asp-ase; assay type: biochemical; conditions: [S] 100-133 μM, 0.1 M Hepes, 0.01 M CaCl2, pH 7.5, 8% Me2SO, 25° C.
T1 construct: Asp-ase purified by HPLC as previously described; endogenous in cells; host or cells: rat RNK LGL leukemia cells, cytolytic granules, HPLC-purified (Sayers et al. 1992)
T1 sequence (P18291 21-248): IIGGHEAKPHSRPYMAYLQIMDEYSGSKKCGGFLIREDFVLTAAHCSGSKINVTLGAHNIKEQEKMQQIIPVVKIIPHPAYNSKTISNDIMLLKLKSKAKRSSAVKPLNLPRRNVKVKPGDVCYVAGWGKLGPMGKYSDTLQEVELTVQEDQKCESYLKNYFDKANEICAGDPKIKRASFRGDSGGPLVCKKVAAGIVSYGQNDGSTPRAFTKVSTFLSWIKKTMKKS
Protocol: (§1) Briefly, 50 μl of sample was added to 100 μl of 1 mM DTNB, made up in 10 mM Hepes, 1 mM CaCl2, 1 mM MgCl2, pH7.2. The reaction was initiated by the addition of 50 μl of BLT (Sigma) to give a final concentration of 500 μM. For Metase determinations, 50 μl of dilutions of the sample in 0.1M Hepes, 0.05M CaCl2, pH7.5 were added to 100 μl of 1 mM DTNB and the reaction was initiated by the addition of 50 μl of Boc-Ala-Ala-Met-S Benzyl (Bzl) to give a final concentration of 150 μM. The duration of the assay depended on color development, the rate of which was measured (0.D410) on a Dynatech MR 5000 microplate reader. Controls of sample and DTNB alone or DTNB and substrate alone were run. For more sensitive comparisons of enzymatic activities, peptide thiobenzyl ester substrates were used to measure protease activities. The chymase substrate Suc-Phe-Leu-Phe-SBzl was purchased from BACHEM Bioscience Inc., Philadelphia, Pa. […] Boc-Ala-Ala-Asp-SBzl is the substrate for Asp-ase and peptide thiobenzyl esters containing Met, Leu or Nle are substrates for Met-ase SP. […] The initial rates were measured at 324 nm using a Beckman 35 spectrophotometer when 10-25 μl of an enzyme stock solution was added to a cuvette containing 2.0 ml of buffer, 150 μl of 4,4'-dithiodipyridine and 25 μl of substrate. The same volume of substrate and 4,4'-dithiodipyridine were added to the reference cell in order to compensate for the background hydrolysis rate of the substrates. Initial rates were measured in duplicate for each substrate concentration and were averaged in each case.
(§2) 10 μl of enzyme solution was added to […]

[2] = target: T2, Tryptase (Rattus norvegicus, UniProt P49864); test: Initial rates of peptide thiobenzyl ester substrate hydrolysis by HPLC-purified Tryptase (HPLC fraction 56); assay type: biochemical; conditions: [S] 100-133 μM, pH 7.5, 25° C.
T2 construct: The BLT-esteraseactivity was found in fractions 49 and 56; endogenous in cells; host or cells: rat RNK-16 NK/LGL leukemia cells, cytolytic granules, HPLC fraction 56
T2 sequence (P49864 26-258): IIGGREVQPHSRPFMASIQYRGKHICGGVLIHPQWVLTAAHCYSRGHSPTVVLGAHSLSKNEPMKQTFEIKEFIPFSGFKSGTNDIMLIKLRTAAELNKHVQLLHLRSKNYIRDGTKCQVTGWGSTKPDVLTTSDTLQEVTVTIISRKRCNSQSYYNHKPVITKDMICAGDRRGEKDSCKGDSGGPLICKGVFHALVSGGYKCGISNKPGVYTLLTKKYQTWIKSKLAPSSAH
Protocol: as §1, §2

[3] = target: T3, Met-ase (Rattus norvegicus, UniProt Q03238); test: Initial rates of peptide thiobenzyl ester substrate hydrolysis by HPLC-purified Met-ase (HPLC fraction 104); assay type: biochemical; conditions: [S] 100-133 μM, pH 7.5, 25° C.
T3 construct: endogenous in cells; host or cells: rat RNK-16 LGL leukemia cells, cytolytic granules, HPLC fraction 104
T3 sequence (Q03238 21-258 limits assumed): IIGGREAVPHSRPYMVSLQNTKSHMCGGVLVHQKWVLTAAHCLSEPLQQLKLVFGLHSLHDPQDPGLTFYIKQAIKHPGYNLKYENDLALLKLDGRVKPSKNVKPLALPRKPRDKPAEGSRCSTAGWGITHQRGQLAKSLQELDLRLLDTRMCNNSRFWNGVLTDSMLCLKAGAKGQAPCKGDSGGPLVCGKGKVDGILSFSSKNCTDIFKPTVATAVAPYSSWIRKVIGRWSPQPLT
Protocol: as §1, §2

[4] = target: T4, Boc-Ala-Ala-Asp-SBzl
T4 sequence (peptide, N-terminal Boc; C-terminal thiobenzyl ester (SBzl)): AAD

[5] = target: T5, Boc-Ala-Ala-Leu-SBzl
T5 sequence (peptide, N-terminal Boc; C-terminal thiobenzyl ester (SBzl)): AAL

[6] = target: T6, Boc-Ala-Ala-Met-SBzl
T6 sequence (peptide, N-terminal Boc; C-terminal thiobenzyl ester (SBzl)): AAM

[7] = target: Boc-Ala-Ala-Nle-SBzl
[8] = target: T7, Boc-Ala-Ala-Ser-SBzl
T7 sequence (peptide, N-terminal Boc; C-terminal thiobenzyl ester (SBzl)): AAS

[9] = target: T8, Suc-Ala-Ala-Met-SBzl
T8 sequence (peptide, N-terminal Suc; C-terminal thiobenzyl ester (SBzl)): AAM

[10] = target: T9, Suc-Phe-Leu-Phe-SBzl
T9 sequence (peptide, N-terminal Suc; C-terminal thiobenzyl ester (SBzl)): FLF

[11] = Met-ase activity of fractions on purification from RNK granules; assay type: biochemical, rat
Protocol: The protease of the present invention is purified to homogeneity sufficient to be sequenced and is at least about 90% pure. At this purity level, the protease has a Met-ase activity of about 156 nM/sec/μg without the intentional addition of other substances such as other proteins or carriers. The assay for measuring this activity was performed as described in the Experimental Details section. The specific activity, however, depends on the degeneracy and folding of the protease and may be as low as about 100 nM/sec/μg to as high as about 200 nM/sec/μg.
Assay of Proteases. Thiobenzylester substrates were used to measure protease activities. For monitoring enzyme activities from granules and column fractions, assays were performed at room temperature using 0.5 mM 5,5'-dithiobis-(2-nitrobenzoic acid) (DTNB) (Sigma) to detect the HSBzl leaving group (e410 =13600M-^-1 cm^-1).
BLT-esterase activity was estimated using a microtiter assay (Green, G. D. J., and Shaw, E. Anal. Biochem. 93:223-226 (1979)). Briefly, 50 μl of sample was added to 100 μl of 1 mM DTNB, made up in 10 mM Hepes, 1 mM CaCl2, 1 mM MgCl2, pH7.2. The reaction was initiated by the addition of 50 μl of BLT (Sigma) to give a final concentration of 500 μM. For Metase determinations, 50 μl of dilutions of the sample in 0.1M Hepes, 0.05M CaCl2, pH7.5 were added to 100 μl of 1 mM DTNB and the reaction was initiated by the addition of 50 μl of Boc-Ala-Ala-Met-S Benzyl (Bzl) to give a final concentration of 150 μM. The duration of the assay depended on color development, the rate of which was measured (0.D410) on a Dynatech MR 5000 microplate reader. Controls of sample and DTNB alone or DTNB and substrate alone were run. For more sensitive comparisons of enzymatic activities, peptide thiobenzyl ester substrates were used to measure protease activities. The chymase substrate Suc-Phe-Leu-Phe-SBzl was purchased from BACHEM Bioscience Inc., Philadelphia, Pa. Z-Arg-SBzl (the tryptase substrate, Kam, C-M., et al. J. Biol. Chem. 262:3444-3451 (1987)); Boc-Ala-Ala-AA-SBzl (AA=Asp, Met, Leu, Nle, or Ser) and Suc-Ala-Ala-Met-SBzl (Odake, S., et al. Biochemistry 30:2217-2227 (1991); Harper, J. W., et al. Biochemistry 23:2995-3002 (1984)) were synthesized previously. Boc-Ala-Ala-Asp-SBzl is the substrate for Asp-ase and peptide thiobenzyl esters containing Met, Leu or Nle are substrates for Met-ase SP. Assays were performed at room temperature in 0.1M, Hepes buffer, pH7.5, containing 0.01M CaCl2 and 8% Me2 SO using 0.34 mM 4,4'-dithiodipyridine (Aldrithiol-4, Aldrich Chemical Co., Milwaukee, Wis.) to detect HSBzl leaving group that reacts with 4,4'-dithiodipyridine to release thiopyridone (ε324=19800M^-1 cm^-1, Grasetti, D. R. and Murray, J. F. Arch. Biochem. Biophys. 119:41-49 (1967)). The initial rates were measured at 324 nm using a Beckman 35 spectrophotometer when 10-25 μl of an enzyme stock solution was added to a cuvette containing 2.0 ml of buffer, 150 μl of 4,4'-dithiodipyridine and 25 μl of substrate. The same volume of substrate and 4,4'-dithiodipyridine were added to the reference cell in order to compensate for the background hydrolysis rate of the substrates. Initial rates were measured in duplicate for each substrate concentration and were averaged in each case. Substrate concentrations were 100-133 μM.

[12] = 10 μl enzyme solution (HPLC fraction 56)
[13] = 10 μl enzyme solution (HPLC fraction 104)

Molecule: CC(C)C[C@H](NC(=O)[C@H](Cc1ccccc1)NC(=O)CCC(=O)O)C(=O)N[C@@H](Cc1ccccc1)C(=O)SCc1ccccc1 [Suc--Phe--Leu--Phe--SBz1, Suc-Phe-Leu-Phe-SBzl] (Suc-Phe-Leu-Phe-SBn)
Initial Rates, Asp-ase ([1]; 10 μl enzyme solution): 0 nM/s | Initial Rates, Tryptase [2, 12]: 0 nM/s | Initial Rates, Met-ase [3, 13]: 0 nM/s

Molecule: CSCC[C@H](NC(=O)[C@H](C)NC(=O)[C@H](C)NC(=O)OC(C)(C)C)C(=O)SCc1ccccc1 [Boc--Ala--Ala--Met--SBz1, Boc-Ala-Ala-Met-S Benzyl (Bzl)] (Boc-Ala-Ala-Met-SBn)
Initial Rates, Asp-ase ([1]; 10 μl enzyme solution): 0 nM/s | Initial Rates, Tryptase [2, 12]: 0 nM/s | Initial Rates, Met-ase [3, 13]: 4.2 nM/s | Initial Rates, Met-ase ([3]; 25 μl enzyme solution (HPLC fraction 104)): 13.7 nM/s

Initial Rates, Asp-ase ([1]; 10 μl enzyme solution): 0 nM/s | Initial Rates, Tryptase [2, 12]: 22.7 nM/s | Initial Rates, Tryptase ([2]; 25 μl enzyme solution (HPLC fraction 56)): 93.4 nM/s | Initial Rates, Met-ase [3, 13]: 0 nM/s
Molecule: N=C(N)NCCC[C@H](NC(=O)OCc1ccccc1)C(=O)SCc1ccccc1 [Z--Arg--SBz1, Z-Arg-SBzl]

Molecule: C[C@H](NC(=O)OC(C)(C)C)C(=O)N[C@@H](C)C(=O)N[C@@H](CC(=O)O)C(=O)SCc1ccccc1 [Boc--Ala--Ala--Asp--SBz1, Boc-Ala-Ala-Asp-SBzl] (Boc-Ala-Ala-Asp-SBn)
Initial Rates, Asp-ase ([1]; 10 μl enzyme solution): 12.6 nM/s | Initial Rates, Asp-ase ([1]; 25 μl enzyme solution): 44.6 nM/s | Initial Rates, Tryptase [2, 12]: 0 nM/s | Initial Rates, Met-ase [3, 13]: 0 nM/s

Initial Rates [4]: 0 nM/s | Initial Rates [5]: 2.9 nM/s | Initial Rates [6]: 4.2 nM/s | Initial Rates [7]: 3.9 nM/s | Initial Rates [8]: 0 nM/s | Initial Rates [9]: 10.1 nM/s | Initial Rates [10]: 0 nM/s
B1: RNK-Met-1 (enzyme)
chain: IIGGREAVPHSRPYMVSLQNTKSHMCGGVLVHQKWVLTAAHCLSEPLQQLKLVFGLHSLHDPQDPGLTFYIKQAIKHPGYNLKYENDLALLKLDGRVKPSKNVKPLALPRKPRDKPAEGSRCSTAGWGITHQRGQLAKSLQELDLRLLDTRMCNNSRFWNGVLTDSMLCLKAGAKGQAPCKGDSGGPLVCGKGKVDGILSFSSKNCTDIFKPTVATAVAPYSSWIRKVIGRWSPQPLT
Increase in the specific activity on purification to homogeneity from the granule extract [11]: 29 fold | Rate ([11]; Met-ase rate, protein in assay 10, 3.4, 1.3, 0.1 μg by fraction): 17 nM/s | Specific Activity ([11]; Met-ase, purification step): 156.0 nM/sec/μg protein | Met-ase activity ([11]; protease at least about 90% pure, no added proteins or carriers): about 156 nM/sec/μg | Total ([11]; total Met-ase activity of the fraction): 2,807 nM/sec
